# According to US20050080113A1, “Medicinal compositions” (priority 2001, published 2005):
row,Compound,melting point [°C]
1,"Cc1cccc(-c2nc(N(C)C(=O)c3ccc(Cl)nc3)sc2-c2ccnc(NC3CCCCC3)c2)c1 [H 44-4, 6 chloro-N-[5 (2-cyclohexylamino-4 pyridyl)-4 (3 methylphenyl)-1,3 thiazol-2-yl]-N-methylnicotinamide]",171 to 172
2,"Cc1cccc(-c2nc(-c3ccc(S(C)(=O)=O)cc3)sc2-c2ccnc(CO)c2)c1 [H 72, 4 [4 (3 methylphenyl)-2 (4 methylsulfonylphenyl)-1,3 thiazol-5 yl]-2 pyridylmethanol]",172 to 173
3,"Cc1cccc(-c2nc(-c3ccc(S(C)(=O)=O)cc3)sc2-c2ccnc(N(C)CCc3ccccc3)c2)c1 [D 25-4, N-methyl-N-[4 [4 (3-methylphenyl)-2 (4 methylsulfonylphenyl)-1,3 thiazol-5 yl]-2 pyridyl]-N-(2 phenylethyl)amine]",116 to 117
4,"CSCc1nc(-c2cccc(C)c2)c(-c2ccnc(N)c2)s1 [H 113-1, 4 [4 (3 methylphenyl)-2-(methylthio)methyl-1,3 thiazol-5 yl]-2 pyridylamine]",113 to 114
5,"Cc1cc(C)cc(-c2nc(NC(=O)c3cccnc3)sc2-c2ccncc2)c1 [23-199, N-[4 (3,5 dimethylphenyl)-5 (4 pyridyl)-1,3 thiazol-2-yl]nicotinamide]",267 to 270
6,"CCc1nc(-c2cccc(F)c2)c(-c2ccnc(N)c2)s1 [H 20-6, 4 [2 ethyl-4 (3-fluorophenyl)-1,3 thiazol-5 yl]-2 pyridylamine]",153 to 154
7,"CSCCc1nc(-c2cccc(Cl)c2)c(-c2ccnc(N)c2)s1 [H 100-1, 4 [4 (3 chlorophenyl)-2-[2 (methylthio)ethyl]-1,3 thiazol-5 yl]-2 pyridylamine]",96 to 97
8,Cc1cccc(-c2nc(NC(=O)NCCCl)sc2-c2ccnc(C)c2)c1,149 to 151
9,"CC(=O)Nc1cc(-c2sc(C(C)=O)nc2-c2cccc(Cl)c2)ccn1 [H 112, N-[4 [2 acetyl-4 (3-chlorophenyl)-1,3 thiazol-5 yl]-2 pyridyl]acetamide]",180 to 183
10,"CCc1nc(-c2cccc(C)c2)c(-c2ccnc(NC(=O)C3CCCC3)c2)s1 [H 29-1, N-[4 [2 ethyl-4 (3-methylphenyl)-1,3 thiazol-5 yl]-2-pyridyl]cyclopentanecarboxamide]",123 to 125
11,"Cc1cc(C)cc(-c2nc(-c3ccc(S(C)(=O)=O)cc3)sc2-c2ccnc(C)c2)c1 [H 58-1, 4 (3,5 dimethylphenyl)-5-(2 methyl-4 pyridyl)-2 (4 methylsulfonylphenyl)-1,3 thiazole]",196 to 197
12,"CC(C)(C)C(=O)Nc1cc(-c2sc(-c3ccc(S(C)(=O)=O)cc3)nc2-c2cccc(Cl)c2)ccn1 [H 58-8, N-[4-[4-(3-chlorophenyl)-2-(4-methylsulfonylphenyl)-1,3-thiazol-5-yl]-2-pyridyl]pivalamide]",122 to 123
13,"CCc1nc(-c2cccc(C)c2)c(-c2ccnc(NC(=O)c3ccc(OC)cc3)c2)s1 [L 39-2, N-[4 [2 ethyl-4 (3-methylphenyl)-1,3 thiazol-5 yl]-2 pyridyl]-4 methoxybenzamide]",124 to 125
14,"Cc1cc(-c2sc(NC(=O)c3cccnc3)nc2-c2ccc(F)cc2)ccn1 [H 42-7, N-[4 (4 fluorophenyl)-5-(2 methyl-4 pyridyl)-1,3 thiazol-2 yl]nicotinamide]",261 to 262
15,"CSc1ccc(-c2nc(-c3cccc(Cl)c3)c(-c3ccnc(NC(C)=O)c3)s2)cc1 [H 30-5, N-[4 [4 (3 chlorophenyl)-2 [4 (methylthio)phenyl]-1,3 thiazol-5 yl]-2-pyridyl]acetamide]",207 to 208
16,"Cc1cc(C)cc(-c2nc(-c3ccc([S+](C)[O-])cc3)sc2-c2ccnc(C)c2)c1 (stereo not drawn) [H 56-1, 4 (3,5 dimethylphenyl)-5-(2 methyl-4 pyridyl)-2 (4 methylsulfinylphenyl)-1,3 thiazole]",151 to 153
17,"Cc1cc(-c2sc(-c3ccc(S(C)(=O)=O)cc3)nc2-c2ccc(F)cc2)ccn1 [H 58-5, 4 (4 fluorophenyl)-5 (2-methyl-4 pyridyl)-2 (4 methylsulfonylphenyl)-1,3 thiazole]",190 to 192
18,"Cc1cccc(-c2nc(-c3ccc(F)cc3)sc2-c2ccnc(NC(=O)c3ccccc3)c2)c1 [D 16-11, N-[4-[2-(4-fluorophenyl)-4-(3-methylphenyl)-1,3-thiazol-5-yl]-2-pyridyl]benzamide]",126 to 128
19,"CCC(=O)Nc1cc(-c2sc(CSC)nc2-c2cccc(Cl)c2)ccn1 [H 102-3, N-[4 [4 (3 chlorophenyl)-2 (methylthio)methyl-1,3 thiazol-5 yl]-2 pyridyl]propionamide]",118 to 119
20,"CCc1nc(-c2ccc(Cl)cc2)c(-c2ccnc(N)c2)s1 [H 20-7, 4 [4 (4 chlorophenyl)-2-ethyl-1,3 thiazol-5 yl]-2 pyridylamine]",136 to 137
21,"Cc1cccc(C2=NCSC2(c2ccnc(C)c2)N2CCOC2=O)c1 (stereo not drawn) [H 65, 3 [4 (3 methylphenyl)-5 (2 methyl-4 pyridyl)-1,3 thiazol-5-yl]-oxazolidin-2 one]",80 to 82

row,Compound,melting point [°C]
1,"CSc1ccc(-c2nc(-c3cccc(C)c3)c(-c3ccnc(NCCc4ccccc4)c3)s2)cc1 [D 19-18, N-[4-[4-(3-methylphenyl)-2-(4-methylthiophenyl)-1,3-thiazol-5-yl]-2-pyridyl]-N-(2-phenylethyl)amine]",137 to 139
2,"CC(=O)Nc1cc(-c2scnc2-c2cccc(C)c2)ccn1 [H 82-11, N-[4 [4 (3 methylphenyl)-1,3 thiazol-5 yl]-2 pyridyl]acetamide]",149 to 150
3,"Cc1cccc(-c2nc(N3CCN(c4ccccc4)C3=O)sc2-c2ccnc(C)c2)c1 [H 67, 1 [4 (3 methylphenyl)-5 (2 methyl-4 pyridyl)-1,3 thiazol-2-yl]-3 phenylimidazolidin-2 one]",180 to 182
4,"CCCCC(=O)Nc1cc(-c2sc(CC)nc2-c2cccc(Cl)c2)ccn1 [H 88-1, N-[4 [4 (3 chlorophenyl)-2-ethyl-1,3 thiazol-5 yl]-2 pyridyl]valeramide]",109 to 110
5,"Cc1cccc(-c2nc(N3CCN(C)CC3)sc2-c2ccnc(C)c2)c1 [H 14-13, 4 (3 methylphenyl)-2 (4-methylpiperazin-1 yl)-5 (2 methyl-4 pyridyl)-1,3 thiazole]",115 to 116
6,"CCCCC(=O)Nc1cc(-c2sc(CC)nc2-c2cccc(C)c2)ccn1 [H 87-1, N-[4 [2 ethyl-4 (3-methylphenyl)-1,3 thiazol-5 yl]-2 pyridyl]valeramide]",81 to 82
7,"CCCc1cccc(-c2nc(CC)sc2-c2ccnc(NC(=O)CC)c2)c1 [H 84-8, N-[4 [2 ethyl-4 (3-propylphenyl)-1,3 thiazol-5 yl]-2 pyridyl]propionamide]",124 to 125
8,"CCC(=O)Nc1cc(-c2sc(C(C)(F)F)nc2-c2cccc(Cl)c2)ccn1 [H 102-4, N-[4 [4 (3 chlorophenyl)-2 (1,1 difluoroethyl)-1,3 thiazol-5 yl]-2 pyridyl]propionamide]",141 to 142
9,"Cc1nc(-c2cccc(Cl)c2)c(-c2ccnc(N)c2)s1 [H 27-2, 4 [4 (3 chlorophenyl)-2-methyl-1,3 thiazol-5 yl]-2 pyridylamine]",142 to 143
10,"Cc1cc(C)cc(-c2nc(NC(=O)Nc3ccccc3)sc2-c2cc(C)nc(C)c2)c1 [H 53-1, N-[4 (3,5 dimethylphenyl)-5 (2,6 dimethyl-4 pyridyl)-1,3 thiazol-2 yl]-N′-phenylurea]",219 to 222
11,"Cc1cccc(-c2nc(-c3ccc(S(C)(=O)=O)cc3)sc2-c2ccnc(N3CCCC3)c2)c1 [H 37-4, 4 (3 methylphenyl)-2 (4-methylsulfonylphenyl)-5 [2 (1 pyrrolidinyl)-4 pyridyl]-1,3-thiazole]",199 to 201
12,"Cc1cccc(-c2nc(NC(=O)NOc3ccccc3)sc2-c2ccnc(C)c2)c1 [H 64, N-[4 (3 methylphenyl)-5 (2-methyl-4 pyridyl)-1,3 thiazol-2 yl]-N′-phenyloxyurea]",154 to 155
13,"CCNC(=O)Nc1cc(-c2sc(CC)nc2-c2cccc(C)c2)ccn1 [H 108, N-ethyl-N′-[4 [2 ethyl-4 (3 methylphenyl)-1,3 thiazol-5 yl]-2-pyridyl]urea]",160 to 162
14,"Cc1cccc(-c2nc(-c3ccccc3Cl)sc2-c2ccnc(NCCCc3ccccc3)c2)c1 [D 19-16, N-[4 [2 (2 chlorophenyl)-4 (3 methylphenyl)-1,3 thiazol-5 yl]-2 pyridyl]-N-(3-phenylpropyl)amine]",101 to 102
15,"CCCc1nc(-c2cccc(C)c2)c(-c2ccnc(N)c2)s1 [H 18-4, 4 [4 (3 methylphenyl)-2-propyl-1,3 thiazol-5 yl]-2 pyridylamine]",113 to 115
16,"Cc1cccc(-c2nc(-c3ccccc3Cl)sc2-c2ccnc(NCc3ccccc3)c2)c1 [D 19-14, N-benzyl-N-[4 [2 (2-chlorophenyl)-4 (3 methylphenyl)-1,3 thiazol-5 yl]-2-pyridyl]amine]",84 to 88
17,"CCc1nc(-c2ccc(Cl)cc2)c(-c2ccnc(NC(=O)CC3CCCC3)c2)s1 [H 90-2, N-[4 [4 (4 chlorophenyl)-2-ethyl-1,3 thiazol-5 yl]-2 pyridyl]cyclopentylacetamide]",149 to 150
18,"CSc1ccc(-c2nc(-c3cccc(C)c3)c(-c3ccnc(F)c3)s2)cc1 [H 15, 5-(2-fluoro-4-pyridyl)-4-(3-methylphenyl)-2-[4-(methylthio)phenyl]-1,3-thiazole]",97 to 100
19,"Cc1cccc(-c2nc(NC(=O)c3ccc(Cl)nc3)sc2-c2ccnc(C)c2)c1 [H 43, 6 chloro-N-[4 (3-methylphenyl)-5 (2 methyl-4 pyridyl)-1,3 thiazol-2-yl]nicotinamide]",228 to 230
20,"Nc1nc(-c2ccccc2)c(-c2ccncc2)s1 [13-15, [4-phenyl-5-(4-pyridyl)-1,3-thiazol-2-yl]amine]",248 to 250
21,"Cc1cccc(-c2nc(NC(=O)c3ccc(Cl)nc3)sc2-c2ccnc(NC3CCCCC3)c2)c1 [H 44-1, 6 chloro-N-[5 (2-cyclohexylamino-4 pyridyl)-4 (3 methylphenyl)-1,3 thiazol-2-yl]nicotinamide]",255 to 256
